# PubChem BioAssay (NCI)
# Where “and” joins values, the source holds several entries; their conditions need not be identical. Equal values may be shown once.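 These data come from cells grown in 96-well plates and exposed to compound for 48 hours at five concentrations. Abbreviation: GI50, concentration required for 50% inhibition of growth. Definition used: TGI = concentration required for complete inhibition of growth.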
# Experiments:
# Assay in all cases: NCI tumour cell line growth inhibition, 48 h
# UACC-257 melanoma = tested on: UACC-257 melanoma
# K-562 leukemia = tested on: K-562 leukemia
# NCI-H460 lung = tested on: NCI-H460 lung
# SW-620 colon = tested on: SW-620 colon
# RPMI-8226 leukemia = tested on: RPMI-8226 leukemia
# UACC-62 melanoma = tested on: UACC-62 melanoma
# HCT-15 colon = tested on: HCT-15 colon
# HS 578T breast = tested on: HS 578T breast
# SK-MEL-28 melanoma = tested on: SK-MEL-28 melanoma
# M14 melanoma = tested on: M14 melanoma
Structure (SMILES),GI50 (UACC-257 melanoma),TGI (UACC-257 melanoma),GI50 (K-562 leukemia),TGI (K-562 leukemia),GI50 (NCI-H460 lung),TGI (NCI-H460 lung),GI50 (SW-620 colon),TGI (SW-620 colon),GI50 (RPMI-8226 leukemia),TGI (RPMI-8226 leukemia),GI50 (UACC-62 melanoma),TGI (UACC-62 melanoma),GI50 (HCT-15 colon),TGI (HCT-15 colon),GI50 (HS 578T breast),TGI (HS 578T breast),GI50 (SK-MEL-28 melanoma),TGI (SK-MEL-28 melanoma),GI50 (M14 melanoma),TGI (M14 melanoma)
N#CC1=C(N)NC(=O)C(C#N)C12Nc1ccccc1S2 (centres undefined),39.9 µM,> 100 µM,48.8 µM,> 100 µM,> 100 µM,> 100 µM,> 100 µM,> 100 µM,43.2 µM,> 100 µM,60.5 µM,> 100 µM,> 100 µM,> 100 µM,43.2 µM,> 100 µM,> 100 µM,> 100 µM,87.9 µM,> 100 µM
O=[N+]([O-])c1ccccc1/C=N\NC(=S)N/N=C/c1ccccc1[N+](=O)[O-],10.3 µM,> 100 µM,3.43 µM,> 100 µM,3.64 µM,> 100 µM,4.29 µM,> 100 µM,5.91 µM,> 100 µM,4.52 µM,> 100 µM,3.76 µM,> 100 µM,3.61 µM,33.6 µM,8.44 µM,> 100 µM,3.76 µM,> 100 µM
COc1cc(/C=C/C(=O)c2c(C)n([O-])c3ccccc3[n+]2=O)cc(OC)c1OC,6.48 µM,20.5 µM,5.88 µM,> 100 µM,3.63 µM,13.1 µM,4.99 µM,17.1 µM,3.58 µM,22.8 µM,11.3 µM,23.3 µM,4 µM,15.6 µM,3.51 µM,21 µM,11.2 µM,28.9 µM,5.28 µM,18.8 µM
NC(CSC(c1ccccc1)(c1ccccc1)c1ccccc1)C(=O)O (centres undefined),1.18 µM and 0.789 µM,53.8 µM and 94.6 µM and > 100 µM,1.76 µM and 0.775 µM,31.9 µM and > 100 µM,2.07 µM,21 µM and 15.8 µM,1.64 µM and 0.968 µM,107 µM and > 100 µM,3.53 µM and 0.501 µM,37.3 µM and 22.4 µM and 20.7 µM,2.01 µM and 3.98 µM,42.9 µM and > 100 µM,2.31 µM and 1.79 µM,51.1 µM and > 100 µM,0.723 µM,21 µM and 32.4 µM,12.2 µM and 4.46 µM,110 µM and > 100 µM,0.426 µM and 0.389 µM,6.01 µM and 16.2 µM and 27.5 µM
NCC(=O)Nc1ccc(Cl)cc1C(=O)c1ccc[nH]1,,> 100 µM,,> 100 µM,,> 100 µM,,> 100 µM,,> 100 µM,,> 100 µM,,> 100 µM,,> 100 µM,,> 100 µM,,> 100 µM
O=C(O)/C=C/c1c2ccc(=O)c(O)c-2oc2c(O)c(O)ccc12,,> 100 µM,,50.2 µM,,> 100 µM,,49.6 µM,,55.9 µM,,> 100 µM,,> 100 µM,,> 100 µM,,> 100 µM,,> 100 µM
CCc1nc(N)nc(N)c1C#CC(C)c1ccc(-c2ccncc2)cc1Cl (centres undefined),0.0286 µM and 0.0348 µM,2.34 µM and 12.1 µM,< 0.005 µM,28.5 µM and 15.2 µM,< 0.005 µM,,< 0.005 µM,6.58 µM and 14.9 µM,0.145 µM and 0.0946 µM,1.7 µM and 10.8 µM,< 0.005 µM and 0.0186 µM,4.39 µM and 10.9 µM,< 0.005 µM and 0.0127 µM,5.24 µM and 11.9 µM,0.687 µM and 2.25 µM,3.47 µM and 19.9 µM,0.0645 µM and 0.375 µM,4.52 µM and 17 µM,< 0.005 µM and 0.0121 µM,1.61 µM and 10.3 µM
COc1ccc2nc3cc(Cl)ccc3c(Nc3ccccc3-c3ccccc3Nc3c4ccc(Cl)cc4nc4ccc(OC)cc34)c2c1,,> 46.4 µM,,59.3 µM,,98.9 µM,,> 68.2 µM,,> 47.7 µM,,> 66.3 µM,,> 66.9 µM,,> 100 µM,,> 86.6 µM,,> 87.5 µM
CCN(Cc1cc(Cl)cc(C)c1O)Cc1c(O)ccc2ccccc12,,30.4 µM,,65.4 µM,,36 µM,,69.7 µM,,> 100 µM,,31.4 µM,,30.5 µM,,36.5 µM,,34.8 µM,,35.9 µM
O=CNC(Cc1cnc[nH]1)C(=O)O (centres undefined),,> 100 µM,,> 100 µM,,> 100 µM,,> 100 µM,,> 100 µM,,> 100 µM,,> 100 µM,,> 100 µM,,> 100 µM,,> 100 µM
